ChEMBL document CHEMBL5614404, “Optimization of potent, broad-spectrum, and specific anti-influenza compounds targeting RNA polymerase PA-PB1 heterodimerization” (Eur J Med Chem, 2024)
≈ marks a conversion by molar mass, not a printed value. Calls of active or inactive are those of the source. The rule behind the calls is not given here.

Key:
[1] = Cytotoxicity against MDCK cells incubated for 48 hrs by MTT assay; format: toxicity, cell-based, Canis lupus familiaris; conditions: dog
[2] = Inhibition of 6His-tagged Influenza virus PA (239 to 716 residues) extracted from Escherichia coli BL21(DE3)pLysS/GST-tagged Influenza virus PB1 (1 to 25 residues) by ELISA; parameters: species or system unidentified influenza virus
Influenza A virus [3] = assay: Antiviral activity against Influenza A virus PR/8/34 infected in MDCK cells incubated for 48 hrs by plaque reduction assay; format: functional, organism-based; conditions: Influenza A virus, PR/8/34, MDCK, 48 h
[4] = Selectivity index, ratio of CC50 for MDCK cells to EC50 for Influenza A virus PR/8/34 infected in MDCK cells; format: toxicity, cell-based; conditions: dog, read-out: Ratio CC50/EC50
HEK293T = assay: Inhibition of heterodimerization of Influenza virus GFP-fused PA/PB1 transfected in HEK293T cells assessed as impaired nuclear import at 0.5 uM incubated for 14 hrs by CLSM analysis; format: cell-based; conditions: unidentified influenza virus
[5] = Cytotoxicity against HEK293T cells incubated for 48 hrs by MTT assay; format: toxicity, cell-based, HEK-293T; conditions: human
[6] = system: unidentified influenza virus; assay: Thermal stabilization of C-terminal 6His-tagged Influenza virus PA (239 to 716 residues) extracted from Escherichia coli BL21(DE3)pLysS/N-terminal Influenza virus PB1 (1 to 25 residues) assessed as shift in melting temperature by nano-DSF assay
[7] = Binding affinity to RED-NT650-NHS-labeled C-terminal 6His-tagged recombinant Influenza virus PA (239 to 716 residues) extracted from Escherichia coli BL21(DE3)pLysS assessed as dissociation constant by MST assay; parameters: species or system unidentified influenza virus
Influenza A virus [8] = assay: Antiviral activity against Influenza A virus PR/8/34 (H1N1) infected in MDCK cells incubated for 48 hrs by plaque reduction assay; format: functional, organism-based
Influenza A virus [9] = assay: Antiviral activity against Influenza A virus Wisconsin/67/05 (H3N2) infected in MDCK cells incubated for 48 hrs by plaque reduction assay; format: functional, organism-based
Influenza B virus [10] = assay: Antiviral activity against ancestral Influenza B virus Lee/40 infected in MDCK cells incubated for 48 hrs by plaque reduction assay; format: functional, organism-based; conditions: Lee/40, MDCK
Influenza B virus [11] = assay: Antiviral activity against Influenza B virus Malaysia/2506/04 infected in MDCK cells incubated for 48 hrs by plaque reduction assay; format: functional, organism-based; conditions: Malaysia/2506/04, MDCK
Dengue virus = assay: Antiviral activity against DENV infected in human Huh-7 cells assessed as inhibition of viral replication; format: functional, organism-based
West Nile virus = assay: Antiviral activity against WNV infected in human Huh-7 cells assessed as inhibition of viral replication; format: functional, organism-based
SARS-CoV-2 = assay: Antiviral activity against SARS CoV-2 infected in human Caco-2 cells assessed as inhibition of viral replication; format: functional, organism-based; conditions: Severe acute respiratory syndrome coronavirus 2
A549 [12] = assay: (§1) Antiviral activity against HPIV infected in human A549 cells assessed as inhibition of viral replication; format: functional, cell-based
Huh-7 = assay: Cytotoxicity against human Huh-7 cells; format: toxicity, cell-based
Caco-2 = assay: Cytotoxicity against human Caco-2 cells; format: toxicity, cell-based
A549 [13] = assay: (§2) Cytotoxicity against human A549 cells; format: toxicity, cell-based; conditions: a549
[14] = Thermodynamic solubility in aqueous media incubated for 24 hrs by shake flask method; format: physicochemical; conditions: read-out: Therm_solubility
[15] = Apparent permeability of compound incubated for 5 hrs by PAMPA; format: ADME
[16] = Permeability of compound assessed as membrane retention incubated for 5 hrs by PAMPA; format: ADME
[17] = Metabolic stability in human liver microsomes assessed as unmetabolized compound at 50 uM incubated for 1 hr in presence of NADPH by UV/LC-MS analysis; format: ADME, Microsome; conditions: read-out: Stability
[18] = Metabolic stability in rat plasma at 2 mM measured for 5 to 60 mins by UV/LC-MS analysis; format: ADME, cell-free; conditions: time 5-60 min, read-out: Stability
[19] = Metabolic stability in rat plasma at 2 mM measured after 1440 mins by UV/LC-MS analysis; format: ADME, cell-free; conditions: read-out: Stability
Influenza A virus [20] = assay: Antiviral activity against Amantadine/Oseltamivir-sensitive Influenza A virus Solomon Islands/03/2006 (H1N1) infected in MDCK cells by plaque reduction assay; format: functional, organism-based
[21] = Inhibition of heterodimerization of C-terminal His-tagged Influenza virus PA (239 to 716 residues)/N-terminal GST-tagged Influenza virus PB1 (1 to 25 residues) incubated overnight by ELISA; parameters: species or system unidentified influenza virus
Influenza B virus [22] = assay: Antiviral activity against Influenza B virus Brisbane/60/2008 infected in MDCK cells by plaque reduction assay; format: functional, organism-based; conditions: Brisbane/60/2008, MDCK
[23] = Cytotoxicity against MDCK cells by Neutral red uptake assay; format: toxicity, cell-based, Canis lupus familiaris; conditions: dog
[24] = as §1; format: functional, cell-based
[25] = as §2; format: toxicity, cell-based; conditions: A549 cells
[26] = Metabolic stability in rat plasma at 2 mM measured upto 1440 mins by UV/LC-MS analysis; format: ADME, cell-free; conditions: read-out: Stability
[27] = Inhibition of heterodimerization of C-terminal His-tagged Influenza virus PA (239 to 716 residues)/N-terminal GST-tagged Influenza virus PB1 (1 to 25 residues) by ELISA; parameters: species or system unidentified influenza virus
Influenza A virus [28] = assay: Antiviral activity against Influenza A virus WSN/33 (H1N1) clinical isolate infected in MDCK cells expressing ST6Gal by crystal violet staining based plaque reduction assay; format: functional, organism-based
Influenza A virus [29] = assay: Antiviral activity against Oseltamivir-sensitive Influenza A virus Denmark/524/2009 (H1N1) clinical isolate infected in MDCK cells expressing ST6Gal by crystal violet staining based plaque reduction assay; format: functional, organism-based
Influenza A virus [30] = assay: Antiviral activity against Influenza A virus Switzerland/9715293/2013 (H3N2) clinical isolate infected in MDCK cells expressing ST6Gal by crystal violet staining based plaque reduction assay; format: functional, organism-based
Influenza A virus [31] = assay: Antiviral activity against Influenza A virus Texas/04/2009 (H1N1) clinical isolate infected in MDCK cells expressing ST6Gal by crystal violet staining based plaque reduction assay; format: functional, organism-based
Influenza A virus [32] = assay: Antiviral activity against Influenza A virus Washington/29/2009 (H1N1) clinical isolate infected in MDCK cells expressing ST6Gal by crystal violet staining based plaque reduction assay; format: functional, organism-based
Influenza B virus [33] = assay: Antiviral activity against Influenza B virus Wisconsin/1/2010 clinical isolate infected in MDCK cells expressing ST6Gal by crystal violet staining based plaque reduction assay; format: functional, organism-based; conditions: Wisconsin/1/2010, MDCK
Influenza B virus [34] = assay: Antiviral activity against Influenza B virus Memphis/20/1996 clinical isolate infected in MDCK cells expressing ST6Gal by crystal violet staining based plaque reduction assay; format: functional, organism-based; conditions: Memphis/20/1996, MDCK
Influenza B virus [35] = assay: Antiviral activity against Influenza B virus Utah/09/2014 clinical isolate infected in MDCK cells expressing ST6Gal by crystal violet staining based plaque reduction assay; format: functional, organism-based; conditions: Utah/09/2014, MDCK
Influenza B virus [36] = assay: Antiviral activity against Influenza B virus Phuket/3073/2013 clinical isolate infected in MDCK cells expressing ST6Gal by crystal violet staining based plaque reduction assay; format: functional, organism-based; conditions: Phuket/3073/2013, MDCK
Influenza B virus [37] = assay: Antiviral activity against Influenza B virus Brisbane/60/2008 clinical isolate infected in MDCK cells expressing ST6Gal by crystal violet staining based plaque reduction assay; format: functional, organism-based; conditions: Brisbane/60/2008, MDCK
[38] = Cytotoxicity against MDCK cells assessed as reduction in cell viability incubated for 48 hrs by Neutral red uptake assay; format: toxicity, cell-based, Canis lupus familiaris; conditions: dog

| Compound | CC50 at 48 h [1] [µM] | IC50 [2] [µM] | EC50 (Influenza A virus [3]) [µM] | selectivity ratio [4] | inhibition (HEK293T) | CC50 at 48 h [5] [µM] | Activity [6] | EC50 (Influenza A virus [8]) [µM] | EC50 (Influenza A virus [9]) [µM] | EC50 (Influenza B virus [10]) [µM] | EC50 (Influenza B virus [11]) [µM] | Activity (Dengue virus) | Activity (West Nile virus) | Activity (SARS-CoV-2) | Activity (Huh-7) | Activity (Caco-2) | solubility thermodynamic at 24 h [14] [µM] | Papp at 5 h [15] [×10⁻⁶ cm/s] | Activity [16] [%] | remaining at 1 h, 50 µM [17] [%] | other results |
| --- | --- | --- | --- | --- | --- | --- | --- | --- | --- | --- | --- | --- | --- | --- | --- | --- | --- | --- | --- | --- | --- |
| N#Cc1ccc(C(=O)Nc2sc3c(c2C(=O)Nc2ccccc2O)CCCCC3)cc1 | > 250 | 19.3 | 0.38 | > 667 | Active | > 50 | Active | 0.38 | 0.22 | 0.3 | 0.35 | inactive | inactive | inactive | Non-Toxic | Non-Toxic | 17.6 (≈ 7.59 µg/mL) | 3.48 | 57 | 93.3 | Kd [7]: 5.75 µM; Activity (A549 [12]): inactive; Activity (A549 [13]): Non-Toxic; remaining at 2000 µM [18]: 95%; remaining at 24 h, 2000 µM [19]: 81% |
| O=C1C(c2ncc([N+](=O)[O-])s2)CC[C@@H]2CCCC[C@@H]12 (some centres undefined) |  |  |  |  |  |  |  |  |  |  |  |  |  |  |  |  |  |  |  |  | EC50 (Influenza A virus [20]): 0.93 µM; IC50 [21]: 18.5 µM; EC50 (Influenza B virus [22]): 0.93 µM; CC50 [23]: > 300 µM |
| O=C(Nc1sc2c(c1C(=O)Nc1ccccc1O)CCCCC2)c1ccc([N+](=O)[O-])cc1O | 224 | 26.5 | 0.089 | 2520 | Active | > 50 | Active | 0.089 | 0.054 | 0.087 | 0.088 | inactive | inactive | inactive | Non-Toxic | Non-Toxic | 49.8 (≈ 23.3 µg/mL) | 0.78 | 2.5 | 93.8 | EC50 [24]: 21.7 µM; CC50 [25]: > 40 µM; remaining at 24 h, 2000 µM [26]: ~100% |
| C[C@@H](c1ccccc1)n1nnnc1[C@H](c1ccsc1)N1CCC(n2c(=O)[nH]c3ccccc32)CC1 |  |  |  |  |  |  |  |  |  |  |  |  |  |  |  |  |  |  |  |  | IC50 [27]: 7.6 µM; EC50 (Influenza A virus [28]): 0.6 µM; EC50 (Influenza A virus [29]): 0.6 µM; EC50 (Influenza A virus [30]): 0.6 µM; EC50 (Influenza A virus [31]): 0.6 µM; EC50 (Influenza A virus [32]): 0.6 µM; EC50 (Influenza B virus [33]): 0.6 µM; EC50 (Influenza B virus [34]): 0.6 µM; EC50 (Influenza B virus [35]): 0.6 µM; EC50 (Influenza B virus [36]): 0.6 µM; EC50 (Influenza B virus [37]): 0.6 µM; CC50 at 48 h [38]: > 300 µM |
